The source of these data is PubChem BioAssay (NCI).

Test systems include SF-268 CNS; SK-MEL-2 melanoma; MDA-MB-435; SW-620 colon; NCI-H522 lung; CCRF-CEM leukemia; SF-295 CNS; T-47D breast; HCT-15 colon; A549 NSCLC.
Assay in all cases: DTP human tumour cell line panel, 48 h

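Assay format: 96-well plates, 48-hour exposure. The concentration for full growth arrest is given as TGI.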 A value given as a limit tells only on which side of the number the result lay.

In the case of `CN(C)C=Nc1cccc2c1NSN2`, the TGI with SF-268 CNS, in the experiment on SK-MEL-2 melanoma, with MDA-MB-435, in the experiment with SW-620 colon, in the experiment with NCI-H522 lung and in the experiment on CCRF-CEM leukemia was greater than 100 µM throughout. Further, the TGI in the experiment on SF-295 CNS, in the experiment with T-47D breast, in the experiment with HCT-15 colon and with A549 NSCLC was greater than 100 µM each time.

In the case of `CC(=O)Oc1ccc(C2SCc3nc4ccccc4n32)cc1` (stereo not given), the TGI in the experiment on SF-268 CNS is 70.8 µM; in the experiment on SK-MEL-2 melanoma it was 80.2 µM; with MDA-MB-435 it was 59.4 µM; in the experiment on SW-620 colon, greater than 100 µM; in the experiment on NCI-H522 lung it was 69.2 µM; in the experiment with CCRF-CEM leukemia it was greater than 100 µM. In addition, the TGI in the experiment with SF-295 CNS, in the experiment with T-47D breast, in the experiment with HCT-15 colon and in the experiment on A549 NSCLC was greater than 100 µM in each case.

Consider `CC(C)N=C(NC#N)NS(=O)(=O)c1cnccc1NC1CCCCCCC1`, for which the TGI with SF-268 CNS, in the experiment on SK-MEL-2 melanoma, in the experiment on MDA-MB-435, with SW-620 colon, in the experiment with NCI-H522 lung and in the experiment with CCRF-CEM leukemia was greater than 100 µM throughout. Moreover, the TGI in the experiment with SF-295 CNS, with T-47D breast, with HCT-15 colon and in the experiment with A549 NSCLC was greater than 100 µM in each case.

With `NC(=O)NC(=O)c1cccc(C(=O)NC(N)=O)n1`, the TGI with SF-268 CNS, with SK-MEL-2 melanoma, in the experiment on MDA-MB-435, with SW-620 colon, with NCI-H522 lung and in the experiment with CCRF-CEM leukemia was greater than 100 µM in each case. In addition, the TGI in the experiment with SF-295 CNS, in the experiment on T-47D breast, in the experiment on HCT-15 colon and in the experiment with A549 NSCLC was greater than 100 µM each time.

Regarding `C=CCOC1=C(OC(C)=O)C(C2COC(C)(C)O2)OC1=O` (stereo not given), the TGI with SF-268 CNS was greater than 100 µM; in the experiment with SK-MEL-2 melanoma it was greater than 100 µM; in the experiment on MDA-MB-435 it was 46.2 µM; in the experiment with SW-620 colon, 32.7 µM; in the experiment with NCI-H522 lung it was 5.45 µM; with CCRF-CEM leukemia, 41.7 µM. Moreover, the TGI in the experiment on SF-295 CNS is greater than 100 µM; with T-47D breast, 39.7 µM; in the experiment with HCT-15 colon, 29.8 µM; in the experiment with A549 NSCLC, 69.4 µM.

On to `COC(=O)CC(c1ccccc1)C(C#N)(OP1(=O)OC(c2ccccc2)C(C)N1C)c1ccccc1` (stereo not given), for which the TGI in the experiment with SF-268 CNS is greater than 100 µM; with SK-MEL-2 melanoma it was 92.6 µM; in the experiment on MDA-MB-435, greater than 100 µM; in the experiment with SW-620 colon, greater than 100 µM; with NCI-H522 lung, greater than 100 µM; in the experiment with CCRF-CEM leukemia it was greater than 100 µM. Besides, the TGI with SF-295 CNS, in the experiment with T-47D breast, with HCT-15 colon and in the experiment with A549 NSCLC was greater than 100 µM in each case.

For the compound `O=[N+]([O-])C(=C(\Cl)NCCO)/C(Cl)=C(/Cl)Br`, the TGI with SF-268 CNS came out at 4.56 µM; in the experiment with SK-MEL-2 melanoma, 4.14 µM; with MDA-MB-435 it was 2.67 µM; in the experiment with SW-620 colon, 2.68 µM; in the experiment with NCI-H522 lung, 2.88 µM; in the experiment on CCRF-CEM leukemia, 2.01 µM. For the same compound, the TGI in the experiment on SF-295 CNS came to 24.9 µM; in the experiment on T-47D breast it was 3.84 µM; in the experiment on HCT-15 colon, 2.78 µM; with A549 NSCLC, 21.1 µM.

`CC1(C)CC(=O)C(/C=N/c2nc(-c3cccc([N+](=O)[O-])c3)cs2)=C(O)C1`: the TGI was 44.1 µM with SF-268 CNS; greater than 100 µM with SK-MEL-2 melanoma; 60.7 µM in the experiment with MDA-MB-435; 25.6 µM in the experiment on SW-620 colon; 23.7 µM in the experiment on NCI-H522 lung; 5.69 µM in the experiment with CCRF-CEM leukemia. The TGI in the experiment with SF-295 CNS was greater than 100 µM; in the experiment on T-47D breast, 37.3 µM; in the experiment with HCT-15 colon, 23.8 µM; in the experiment with A549 NSCLC, greater than 100 µM.

Consider `COc1ccc2oc(=O)c(-c3nc4ccccc4s3)cc2c1`, for which the TGI with SF-268 CNS is greater than 100 µM; in the experiment on SK-MEL-2 melanoma, greater than 100 µM; with MDA-MB-435, greater than 47.1 µM; with SW-620 colon it was greater than 100 µM; in the experiment with NCI-H522 lung, greater than 100 µM; in the experiment with CCRF-CEM leukemia, greater than 75.6 µM. Besides, the concentration for total growth inhibition (TGI) with SF-295 CNS was greater than 57.3 µM; in the experiment on T-47D breast it was greater than 100 µM; in the experiment with HCT-15 colon, greater than 100 µM; in the experiment on A549 NSCLC it was greater than 41.9 µM.

For `CCN(CC)C(=O)N1CN(c2ccccc2)C2(CCN(CCCC3(c4ccc(F)cc4)OCCO3)CC2)C1=O`, the TGI was 45.5 µM in the experiment on SF-268 CNS; 33 µM in the experiment with SK-MEL-2 melanoma; 38.9 µM with MDA-MB-435; 40.4 µM in the experiment with SW-620 colon; 30.2 µM in the experiment with NCI-H522 lung; 45.9 µM with CCRF-CEM leukemia. The TGI with SF-295 CNS was 41.3 µM; in the experiment on T-47D breast, greater than 100 µM; in the experiment with HCT-15 colon, 32.3 µM; in the experiment with A549 NSCLC it was greater than 100 µM.

Regarding `O=c1ccc2c(Cl)sc(Cl)c2[nH]1`, the TGI with SF-268 CNS, in the experiment with SK-MEL-2 melanoma, with MDA-MB-435, with SW-620 colon, with NCI-H522 lung and with CCRF-CEM leukemia was greater than 100 µM throughout. The TGI in the experiment on SF-295 CNS, with T-47D breast, in the experiment on HCT-15 colon and with A549 NSCLC was greater than 100 µM in each case.

In the case of `Cc1c(OCc2cccc3ccccc23)ccc2c(=O)cc(S)oc12`, the TGI was greater than 100 µM in the experiment with SF-268 CNS; 50.4 µM in the experiment with SK-MEL-2 melanoma; 98.6 µM in the experiment on MDA-MB-435; greater than 100 µM in the experiment on SW-620 colon; 89.4 µM in the experiment with NCI-H522 lung; 54.1 µM in the experiment on CCRF-CEM leukemia. The TGI in the experiment on SF-295 CNS was 88.7 µM; with T-47D breast, greater than 100 µM; in the experiment with HCT-15 colon it was greater than 100 µM; in the experiment on A549 NSCLC it was greater than 100 µM.

For `CCCCCC(=O)OC[n+]1ccc(-c2c(COC(=O)NC(C)C)c(COC(=O)NC(C)C)c3n2CCC3)cc1`, the TGI in the experiment with SF-268 CNS, in the experiment on SK-MEL-2 melanoma, in the experiment with MDA-MB-435, in the experiment with SW-620 colon, with NCI-H522 lung and in the experiment with CCRF-CEM leukemia was greater than 100 µM throughout. The TGI in the experiment on SF-295 CNS, in the experiment with T-47D breast, in the experiment on HCT-15 colon and in the experiment with A549 NSCLC was greater than 100 µM throughout.

By TGI is commonly meant the concentration giving total growth inhibition.
